In ChEMBL document CHEMBL1135148, “Synthesis and profile of SCH351591, a novel PDE4 inhibitor” (Bioorg Med Chem Lett, 2002):

Columns and labels:
Phosphodiesterase 4 [1] = biological target: Phosphodiesterase 4 (Rattus norvegicus, UniProt P14270+P14646+P14644+P54748); assay: Inhibition of rolipram binding to PDE4 of rat brain
Phosphodiesterase 4 [2] = biological target: T1, Phosphodiesterase 4 (Homo sapiens, UniProt P27815+Q08499+Q07343+Q08493); assay: Inhibition of Phosphodiesterase 4 from human U937 cells; type: cell-based; conditions: u-937
Phosphodiesterase 4 [3] = biological target: T1, Phosphodiesterase 4; assay: Relative inhibition of phosphodiesterase 4 and rolipram binding; type: protein assay
[4] = biological target: Phosphodiesterase 3 (Homo sapiens) (UniProt Q14432+Q13370); assay: Inhibition of Phosphodiesterase 3 from human platelets; conditions: concentration not given here
[5] = biological target: Phosphodiesterase 1 (Homo sapiens) (UniProt P54750+Q01064+Q14123); assay: Inhibition of recombinant Phosphodiesterase 1; type: protein assay; conditions: concentration not given here
[6] = Cmax in rat after 3mg/kg oral dose; type: ADME, organism-based; design: dose 3 mg/kg, route oral; conditions: in vivo
Phosphodiesterase 4 [7] = biological target: T1, Phosphodiesterase 4; assay: Inhibition of Phosphodiesterase 4; type: protein assay
[8] = biological target: Phosphodiesterase 7 (Homo sapiens) (UniProt Q13946+Q9NP56); assay: Inhibition of Phosphodiesterase 7 from human T-lymphocyte cell line; conditions: concentration not given here
Sequence of Phosphodiesterase 7 (Homo sapiens) (Q13946 whole entry, looked up): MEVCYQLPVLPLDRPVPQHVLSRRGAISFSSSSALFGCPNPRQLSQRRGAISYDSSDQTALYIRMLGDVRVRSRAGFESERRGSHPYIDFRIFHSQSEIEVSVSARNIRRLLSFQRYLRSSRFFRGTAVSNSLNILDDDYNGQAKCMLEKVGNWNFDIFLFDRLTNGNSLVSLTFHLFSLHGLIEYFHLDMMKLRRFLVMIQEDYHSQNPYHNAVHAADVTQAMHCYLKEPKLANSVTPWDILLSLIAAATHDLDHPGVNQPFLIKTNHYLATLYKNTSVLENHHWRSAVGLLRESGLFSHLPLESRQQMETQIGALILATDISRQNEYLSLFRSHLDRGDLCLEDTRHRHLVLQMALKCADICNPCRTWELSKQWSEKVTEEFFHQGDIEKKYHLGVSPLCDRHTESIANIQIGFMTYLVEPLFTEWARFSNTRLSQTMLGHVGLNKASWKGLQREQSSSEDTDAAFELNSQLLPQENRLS
Sequence of Phosphodiesterase 7 (Homo sapiens) (Q9NP56 whole entry, looked up): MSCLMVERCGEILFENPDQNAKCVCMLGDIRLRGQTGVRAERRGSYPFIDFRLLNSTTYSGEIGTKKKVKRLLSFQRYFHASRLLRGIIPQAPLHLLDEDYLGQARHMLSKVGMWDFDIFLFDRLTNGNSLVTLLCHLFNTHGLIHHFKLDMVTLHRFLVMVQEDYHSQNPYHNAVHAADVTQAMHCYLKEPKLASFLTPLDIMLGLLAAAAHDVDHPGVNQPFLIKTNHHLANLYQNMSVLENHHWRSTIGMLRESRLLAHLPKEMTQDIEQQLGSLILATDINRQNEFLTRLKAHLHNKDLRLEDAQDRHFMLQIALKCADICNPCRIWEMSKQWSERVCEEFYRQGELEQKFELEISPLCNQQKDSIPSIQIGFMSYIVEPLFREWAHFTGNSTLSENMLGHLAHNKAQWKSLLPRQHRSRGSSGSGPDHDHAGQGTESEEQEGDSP

[9] = Cmax in guinea pig after 3mg/kg oral dose; type: ADME, organism-based, Cavia porcellus; design: dose 3 mg/kg, route oral; conditions: in vivo
[10] = biological target: cGMP-specific 3',5'-cyclic phosphodiesterase (Homo sapiens) (UniProt O76074); assay: Inhibition of Phosphodiesterase 5 from human platelets; conditions: concentration not given here
[11] = AUC in guinea pig after 3mg/kg oral dose; type: ADME, organism-based, Cavia porcellus, Plasma
[12] = biological target: cGMP-dependent 3',5'-cyclic phosphodiesterase (Homo sapiens) (UniProt O00408); assay: Inhibition of Phosphodiesterase 2; conditions: concentration not given here
Sequence of cGMP-dependent 3',5'-cyclic phosphodiesterase (Homo sapiens) (O00408 whole entry): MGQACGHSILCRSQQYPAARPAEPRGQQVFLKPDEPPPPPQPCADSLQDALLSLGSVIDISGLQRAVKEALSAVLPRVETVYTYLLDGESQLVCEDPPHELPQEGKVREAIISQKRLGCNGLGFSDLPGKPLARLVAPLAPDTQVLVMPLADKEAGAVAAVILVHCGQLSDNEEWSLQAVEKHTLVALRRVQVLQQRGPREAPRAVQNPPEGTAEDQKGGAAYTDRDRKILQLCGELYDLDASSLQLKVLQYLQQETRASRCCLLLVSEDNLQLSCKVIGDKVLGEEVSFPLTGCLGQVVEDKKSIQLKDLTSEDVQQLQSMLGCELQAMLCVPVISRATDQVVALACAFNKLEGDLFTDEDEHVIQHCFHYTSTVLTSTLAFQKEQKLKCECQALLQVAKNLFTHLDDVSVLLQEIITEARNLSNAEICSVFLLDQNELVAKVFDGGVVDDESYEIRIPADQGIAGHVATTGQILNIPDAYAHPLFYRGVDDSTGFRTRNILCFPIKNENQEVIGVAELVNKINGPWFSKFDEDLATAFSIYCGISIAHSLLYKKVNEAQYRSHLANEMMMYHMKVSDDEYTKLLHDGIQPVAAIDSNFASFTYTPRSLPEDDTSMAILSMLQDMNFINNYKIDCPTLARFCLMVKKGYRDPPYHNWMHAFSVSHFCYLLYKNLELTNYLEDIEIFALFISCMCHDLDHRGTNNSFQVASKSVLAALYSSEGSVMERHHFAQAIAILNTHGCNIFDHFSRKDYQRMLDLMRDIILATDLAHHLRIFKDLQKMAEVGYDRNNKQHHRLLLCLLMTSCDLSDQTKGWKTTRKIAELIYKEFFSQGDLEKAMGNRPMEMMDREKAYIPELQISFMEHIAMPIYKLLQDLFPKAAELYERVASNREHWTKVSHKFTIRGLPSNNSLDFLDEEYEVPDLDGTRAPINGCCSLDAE

[13] = AUC in rat after 3mg/kg oral dose; type: ADME, organism-based; conditions: plasma

Compound | IC50 (Phosphodiesterase 4 [1]) | IC50 (Phosphodiesterase 4 [2]) | Ratio (Phosphodiesterase 4 [3]) | further results
COc1ccc(C(=O)Nc2cc[n+]([O-])cc2Cl)c2ccc(C(F)(F)F)nc12 | 370 nM | 240 nM | 0.65 | –
COc1ccc(C(=O)Nc2c(C)c[n+]([O-])cc2C)c2ccc(C(F)(F)F)nc12 | 380 nM | 150 nM | 0.39 | –
COc1ccc(C(=O)Nc2c(Cl)c[n+]([O-])cc2Cl)c2ccc(C(F)(F)F)nc12 [SCH-351591] | 150 nM | 60 nM | 0.4 | inhibition [4]: 31%; inhibition [5]: 15%; Cmax [6]: 3060 ng/mL; IC50 (Phosphodiesterase 4 [7]): 60 nM; inhibition [8]: 10%; Cmax [9]: 1390 ng/mL; inhibition [10]: 5%; AUC ([11]; in vivo): 15757 ng·h/mL; AUC ([11]; plasma, read-out: AUC): 15800 ng·h/mL; inhibition [12]: 0%; AUC [13]: 50500 ng·h/mL
COc1ccc(C(=O)Nc2c(F)c[n+]([O-])cc2F)c2ccc(C(F)(F)F)nc12 | 60 nM | 70 nM | 1.17 | –
COc1ccc(C(=O)Nc2c(F)cncc2F)c2ccc(C(F)(F)F)nc12 | 38 nM | 35 nM | 0.94 | –
COc1ccc(C(=O)Nc2c(Cl)cncc2Cl)c2ccc(C(F)(F)F)nc12 | 77 nM | – | 0.66 | Cmax [9]: 380 ng/mL; AUC ([11]; in vivo): 1174 ng·h/mL; AUC ([11]; plasma, read-out: AUC): 1170 ng·h/mL; AUC [13]: 6860 ng·h/mL
COc1ccc(C(=O)Nc2c(C)cncc2C)c2ccc(C(F)(F)F)nc12 | 58 nM | 120 nM | 2.1 | –
COc1ccc(C(=O)Nc2ccncc2Cl)c2ccc(C(F)(F)F)nc12 | 110 nM | 1120 nM | 10 | –
